Results on 24 molecules are retold here after patent US8268827B2, “Pyridazinone derivatives as PARP inhibitors” (Istituto di Ricerche di Biologia Molecolare P. Angeletti …, priority 2007, dated 2012).

Structures can show the parent of a compound that is named as a salt.

For assay [1], the system named is BRCA-1 silenced HeLa cells (HeLa shBRCA1-GFP). Description: Proliferation assay in BRCA-1 silenced HeLa cells. As to conditions: Homo sapiens; BRCA1 silenced HeLa cells, 168 hours; read-out: CC50 in the BRCA1 silenced HeLa cells. Format: cell-based. In short, it runs like this: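 Antiproliferative effect was read by Celltiter Blue fluorescence after 168 h of compound treatment at 37° C., 5% CO2. Cells were matched HeLa pairs, BRCA1-shRNA (>80% silenced, GFP) versus non-shRNA vector control, in DMEM with 10% FCS.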

In a further assay the target is T1, PARP-1 (Homo sapiens, UniProt P09874).
T1 construct: purchased Trevigen 4668-500-01
T1 sequence (P09874 whole entry): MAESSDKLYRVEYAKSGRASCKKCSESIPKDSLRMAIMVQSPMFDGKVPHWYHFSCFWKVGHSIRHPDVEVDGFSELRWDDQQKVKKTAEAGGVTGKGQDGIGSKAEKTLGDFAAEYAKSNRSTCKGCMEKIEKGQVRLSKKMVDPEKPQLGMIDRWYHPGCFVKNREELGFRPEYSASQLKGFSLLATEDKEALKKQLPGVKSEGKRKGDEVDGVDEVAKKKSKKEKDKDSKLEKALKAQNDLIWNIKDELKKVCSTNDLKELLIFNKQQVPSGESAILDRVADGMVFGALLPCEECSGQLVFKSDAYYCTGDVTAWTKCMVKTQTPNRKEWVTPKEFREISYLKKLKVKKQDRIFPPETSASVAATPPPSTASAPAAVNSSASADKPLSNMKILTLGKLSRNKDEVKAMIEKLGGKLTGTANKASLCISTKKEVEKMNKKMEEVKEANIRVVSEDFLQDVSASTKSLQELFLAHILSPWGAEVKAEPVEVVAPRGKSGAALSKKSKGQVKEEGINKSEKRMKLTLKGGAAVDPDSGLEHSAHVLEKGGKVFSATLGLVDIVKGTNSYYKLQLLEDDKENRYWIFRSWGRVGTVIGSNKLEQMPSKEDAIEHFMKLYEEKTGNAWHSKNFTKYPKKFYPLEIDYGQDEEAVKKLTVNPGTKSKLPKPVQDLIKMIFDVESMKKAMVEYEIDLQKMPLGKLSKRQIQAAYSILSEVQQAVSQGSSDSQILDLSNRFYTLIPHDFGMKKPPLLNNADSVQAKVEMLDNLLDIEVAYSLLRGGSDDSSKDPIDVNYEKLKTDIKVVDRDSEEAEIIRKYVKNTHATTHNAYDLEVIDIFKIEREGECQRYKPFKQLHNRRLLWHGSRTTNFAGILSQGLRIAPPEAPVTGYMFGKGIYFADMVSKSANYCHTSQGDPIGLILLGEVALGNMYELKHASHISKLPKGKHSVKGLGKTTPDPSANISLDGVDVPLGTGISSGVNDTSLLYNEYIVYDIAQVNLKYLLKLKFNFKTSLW
As to the kind of experiment: PARP-1 SPA assay. The class given is biochemical. Summed up:
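PARP-1 reaction in Tris pH 8 buffer with MgCl2, spermine, KCl, activated calf thymus DNA and a mix of [3H]-NAD, NAD and biotinylated NAD, 2 h at RT. Stopped with EDTA/streptavidin SPA beads and poly(ADP-ribose) incorporation counted by scintillation.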

Usually CC50 stands for the concentration giving 50% cytotoxicity. A word on the IC50: it is the concentration at which inhibition is half-maximal. Consider `Cc1c(Cc2ccc(F)c(C(=O)N3CCN(CC4(C)CCCO4)C(=O)C3)c2)n[nH]c(=O)c1C` (stereo not drawn) [Example 97, 6-[4-fluoro-3-({4-[(2-methyltetrahydrofuran-2-yl)methyl]-3-oxopiperazin-1-yl}carbonyl)benzyl]-4,5-dimethyl-3-oxo-2,3-dihydropyridazin-1-ium trifluoroacetate], for which the CC50 in assay [1] was under 5000 nM. The molecule also returned a concentration for half-maximal inhibition (IC50) against PARP-1 of 5 to 25 nM.
Regarding `CCN1C(=O)CN(C(=O)c2cc(Cc3n[nH]c(=O)c(C)c3C)ccc2F)CC1C` (stereo not drawn) [Example 137, 6-{3-[(4-ethyl-3-methyl-5-oxopiperazin-1-yl)carbonyl]-4-fluorobenzyl}-4,5-dimethyl-3-oxo-2,3-dihydropyridazin-1-ium trifluoroacetate], the CC50 in assay [1] lay in the range of 50 to 500 nM. At PARP-1, this molecule returned a concentration for half-maximal inhibition (IC50) of 5 to 25 nM.
As for `Cc1c(Cc2ccc(F)c(C(=O)N3CCN(C(C)c4nc(C(C)C)no4)C(=O)C3)c2)n[nH]c(=O)c1C` (stereo not drawn) [Example 54, 6-[4-Fluoro-3-({4-[1-(3-isopropyl-1,2,4-oxadiazol-5-yl)ethyl]-3-oxopiperazin-1-yl}carbonyl)benzyl]-4,5-dimethyl-3-oxo-2,3-dihydropyridazin-1-ium trifluoroacetate], the half-maximal cytotoxic concentration (CC50) in assay [1] is 50 to 500 nM. In addition, the IC50 against PARP-1 is under 5 nM.
As for `Cc1c(Cc2ccc(F)c(C(=O)N3CC(=O)N(c4ccccc4)C(C)C3)c2)n[nH]c(=O)c1C` (racemic) [Example 78 (LL4), 3-[4-Fluoro-3-(3-methyl-5-oxo-4-phenyl-piperazine-1-carbonyl)-benzyl]-4,5-dimethyl-6-oxo-1,6-dihydro-pyridazin-1-ium trifluoroacetate], the CC50 in assay [1] was under 50 nM. In addition, the IC50 at PARP-1 is under 5 nM.
For `Cc1c(Cc2ccc(F)c(C(=O)N3CCN(C4CCCOC4)C(=O)C3)c2)n[nH]c(=O)c1C(F)(F)F` (stereo not drawn) [Example 141, 3-(4-Fluoro-3-{[3-oxo-4-(tetrahydro-2H-pyran-3-yl)piperazin-1-yl]carbonyl}benzyl)-4-methyl-6-oxo-5-(trifluoromethyl)-1,6-dihydropyridazin-1-ium trifluoroacetate], in assay [1], the CC50 is under 50 nM. Further, at PARP-1, the IC50 lay within 5 to 25 nM.
For `COCCN1CCN(C(=O)c2cc(Cc3n[nH]c(=O)c(C)c3C)ccc2F)CC1=O` [Example 170, 6-(4-Fluoro-3-{[4-(2-methoxyethyl)-3-oxopiperazin-1-yl]carbonyl}benzyl)-4,5-dimethylpyridazin-3(2H)-one], the CC50 in assay [1] is under 5000 nM. Also, the IC50 at PARP-1 is 5 to 25 nM.
Turning to `Cc1c(Cc2ccc(F)c(C(=O)N3CCC(=O)N(C(C)C)CC3)c2)n[nH]c(=O)c1C` [Example 36, 6-{4-Fluoro-3-[(4-isopropyl-5-oxo-1,4-diazepan-1-yl)carbonyl]benzyl}-4,5-dimethyl-3-oxo-2,3-dihydropyridazin-1-ium trifluoroacetate], the CC50 in assay [1] was under 5000 nM. Besides, the IC50 at PARP-1 was 5 to 25 nM.
Turning to `Cc1c(Cc2ccc(F)c(C(=O)N3CC(=O)N4CCCC[C@@H]4C3)c2)n[nH]c(=O)c1C` [Example 90, (9aR)-2-{5-[(4,5-Dimethyl-6-oxo-1,6-dihydropyridazin-3-yl)methyl]-2-fluorobenzoyl}octahydro-4H-pyrido[1,2-a]pyrazin-4-one trifluoroacetate], the CC50 in assay [1] was under 50 nM. Besides, the IC50 against PARP-1 is under 5 nM.
For `Cc1c(Cc2ccc(F)c(C(=O)N3CC(=O)N(CC(F)(F)F)C(C)C3)c2)n[nH]c(=O)c1C` (stereo not drawn) [Example 139, 6-(4-fluoro-3-{[3-methyl-5-oxo-4-(2,2,2-trifluoroethyl)piperazin-1-yl]carbonyl}benzyl)-4,5-dimethyl-3-oxo-2,3-dihydropyridazin-1-ium trifluoroacetate], the CC50 in assay [1] lay in the range of 50 to 500 nM. The molecule also displayed an IC50 against PARP-1 of 5 to 25 nM.
`Cc1c(Cc2ccc(F)c(C(=O)N3CC(=O)N4CCOCC4C3)c2)n[nH]c(=O)c1C(F)(F)F` (stereo not drawn) [Example 136, 3-{4-Fluoro-3-[(6-oxohexahydropyrazino[2,1-c][1,4]oxazin-8(1H)-yl)carbonyl]benzyl}-4-methyl-6-oxo-5-(trifluoromethyl)-1,6-dihydropyridazin-1-ium trifluoroacetate]: the CC50 in assay [1] is 50 to 500 nM. This molecule returned a half-maximal inhibitory concentration (IC50) at PARP-1 of under 5 nM.
As for `Cc1c(Cc2ccc(F)c(C(=O)N3CCN(C45CC(C4)C5)C(=O)C3)c2)n[nH]c(=O)c1C` [Example 52, 6-{3-[(4-Bicyclo[1.1.1]pent-1-yl-3-oxopiperazin-1-yl)carbonyl]-4-fluorobenzyl}-4,5-dimethyl-3-oxo-2,3-dihydropyridazin-1-ium trifluoroacetate], in assay [1], the CC50 lay within 50 to 500 nM. This molecule also came in with an IC50 against PARP-1 of 5 to 25 nM.
The matching figures for `Cc1c(Cc2ccc(F)c(C(=O)N3CCN(CC4(c5ccccc5)CCOCC4)C(=O)C3)c2)n[nH]c(=O)c1C` [Example 56, 6-[4-Fluoro-3-({3-oxo-4-[(4-phenyltetrahydro-2H-pyran-4-yl)methyl]piperazin-1-yl}carbonyl)benzyl]-4,5-dimethyl-3-oxo-2,3-dihydropyridazin-1-ium trifluoroacetate]: under 5000 nM and 5 to 25 nM.
Turning to `Cc1c(Cc2ccc(F)c(C(=O)N3CCN(CCc4cccc(F)c4)C(=O)C3)c2)n[nH]c(=O)c1C` [Example 59, 6-[4-Fluoro-3-({4-[2-(3-fluorophenyl)ethyl]-3-oxopiperazin-1-yl}carbonyl)benzyl]-4,5-dimethyl-3-oxo-2,3-dihydropyridazin-1-ium trifluoroacetate], in assay [1], the 50% cytotoxic concentration (CC50) was in the range of 50 to 500 nM. On PARP-1, this molecule displayed an IC50 of under 5 nM.
As to `Cc1c(Cc2ccc(F)c(C(=O)N3CC(=O)N(C4CCCC4)[C@H](C(C)C)C3)c2)n[nH]c(=O)c1C` [Example 207, 6-(3-{[(3R)-4-Cyclopentyl-3-isopropyl-5-oxopiperazin-1-yl]carbonyl}-4-fluorobenzyl)-4,5-dimethylpyridazin-3(2H)-one], in assay [1], the CC50 is under 5000 nM. At PARP-1, this molecule registered an IC50 of 5 to 25 nM.
The matching figures for `Cc1c(Cc2ccc(F)c(C(=O)N3CCN(C4CCOC(C)(C)C4)C(=O)C3)c2)n[nH]c(=O)c1C` (stereo not drawn) [Example 76, 6-(3-{[4-(2,2-Dimethyltetrahydro-2H-pyran-4-yl)-3-oxopiperazin-1-yl]carbonyl}-4-fluorobenzyl)-4,5-dimethylpyridazin-3(2H)-one trifluoroacetate]: under 5000 nM and under 5 nM.
For `CCc1cc(Cc2ccc(F)c(C(=O)N3CCN([C@@H]4CCCOC4)C(=O)C3)c2)n[nH]c1=O` [Example 145, 4-ethyl-6-[4-fluoro-3-({3-oxo-4-[(3R)-tetrahydro-2H-pyran-3-yl]piperazin-1-yl}carbonyl)benzyl]pyridazin-3(2H)-one], the CC50 in assay [1] lay within 50 to 500 nM. Also, on PARP-1, the 50% inhibitory concentration (IC50) fell in the range of 5 to 25 nM.
The matching figures for `Cc1c(Cc2ccc(F)c(C(=O)N3CC(=O)N(C4CCC4)[C@@H](C)C3)c2)n[nH]c(=O)c1C` [Example 176, 6-(3-{[(3S)-4-Cyclobutyl-3-methyl-5-oxopiperazin-1-yl]carbonyl}-4-fluorobenzyl)-4,5-dimethylpyridazin-3(2H)-one]: under 5000 nM and 5 to 25 nM.
As to `Cc1c(Cc2ccc(F)c(C(=O)N3CCN(C4CCC4)C(=O)C3)c2)n[nH]c(=O)c1C` [Example 57, 6-{3-[(4-Cyclobutyl-3-oxopiperazin-1-yl)carbonyl]-4-fluorobenzyl}-4,5-dimethyl-3-oxo-2,3-dihydropyridazin-1-ium trifluoroacetate], the cytotoxic concentration (CC50) in assay [1] is 50 to 500 nM. This molecule also came in with an IC50 at PARP-1 of 5 to 25 nM.
`Cc1c(Cc2ccc(F)c(C(=O)N3CCN(C4CCC(C)(C)CC4)C(=O)C3)c2)n[nH]c(=O)c1C` [Example 50, 6-(3-{[4-(4,4-Dimethylcyclohexyl)-3-oxopiperazin-1-yl]carbonyl}-4-fluorobenzyl)-4,5-dimethyl-3-oxo-2,3-dihydropyridazin-1-ium trifluoroacetate]: the CC50 in assay [1] was under 50 nM. This molecule also gave an IC50 on PARP-1 of 5 to 25 nM.
Regarding `Cc1c(Cc2ccc(F)c(C(=O)N3CC(=O)N(C4CCCC4)[C@H](C)C3)c2)n[nH]c(=O)c1C` [Example 115, 6-(3-{[(3R)-4-cyclopentyl-3-methyl-5-oxopiperazin-1-yl]carbonyl}-4-fluorobenzyl)-4,5-dimethylpyridazin-3(2H)-one], in assay [1], the CC50 was under 5000 nM. Moreover, the IC50 on PARP-1 fell in the range of 5 to 25 nM.
With `Cc1c(Cc2ccc(F)c(C(=O)N3CCN(C4CCOC4)C(=O)C3)c2)n[nH]c(=O)c1C(F)(F)F` (stereo not drawn) [Example 142, 3-(4-Fluoro-3-{[3-oxo-4-(tetrahydrofuran-3-yl)piperazin-1-yl]carbonyl}benzyl)-4-methyl-6-oxo-5-(trifluoromethyl)-1,6-dihydropyridazin-1-ium trifluoroacetate], the CC50 in assay [1] was under 50 nM. The IC50 on PARP-1 is under 5 nM.
In the case of `Cc1c(Cc2ccc(F)c(C(=O)N3CCN(C4CCC(F)C4)C(=O)C3)c2)n[nH]c(=O)c1C` (stereo not drawn) [Example 150, 6-(4-Fluoro-3-{[4-(3-fluorocyclopentyl)-3-oxopiperazin-1-yl]carbonyl}benzyl)-4,5-dimethylpyridazin-3(2H)-one], the CC50 in assay [1] was 50 to 500 nM. This molecule also came in with an IC50 against PARP-1 of under 5 nM.
`Cc1c(Cc2ccc(F)c(C(=O)N3CC(=O)N(C4CCCCC4)C(C)C3)c2)n[nH]c(=O)c1C` (stereo not drawn) [Example 125, 3-{3-[(4-Cyclohexyl-3-methyl-5-oxopiperazin-1-yl)carbonyl]-4-fluorobenzyl}-4,5-dimethyl-6-oxo-1,6-dihydropyridazin-1-ium trifluoroacetate]: the CC50 in assay [1] was under 50 nM. On PARP-1, this molecule displayed an IC50 of 5 to 25 nM.
Consider `CCN1C(=O)CN(C(=O)c2cc(Cc3n[nH]c(=O)c(C(F)(F)F)c3C)ccc2F)CC1C` (stereo not drawn) [Example 147, 3-{3-[(4-Ethyl-3-methyl-5-oxopiperazin-1-yl)carbonyl]-4-fluorobenzyl}-4-methyl-6-oxo-5-(trifluoromethyl)-1,6-dihydropyridazin-1-ium trifluoroacetate], for which the CC50 in assay [1] was under 50 nM. The molecule further displayed a half-inhibitory concentration (IC50) at PARP-1 of 5 to 25 nM.
